How the values were obtained:
[1] = target: HIV-2 reverse transcriptase (Human immunodeficiency virus 2); experiment: Evaluated for inhibition of HIV-2 reverse transcriptase
[2] = target: HIV-2 reverse transcriptase (Human immunodeficiency virus 2); experiment: Compound was evaluated for inhibition of HIV-2 reverse transcriptase using rC.dG and [3H]-dGTP as substrates at 100 ug/mL
[3] = target: HIV-2 reverse transcriptase (Human immunodeficiency virus 2); experiment: as above; remark: listed apart in the source

Structure (SMILES)	IC50 [1] [µM]	IC50 [2] [µM]	further results
O=C(CCCC(=O)Nc1ccc(Cl)cc1C(=O)O)Nc1ccc(Cl)cc1C(=O)O [2-({5-[(2-carboxy-4-chlorophenyl)amino]-5-oxopentanoyl}amino)-5-chlorobenzoic acid]	9.6		
O=C(CCCCC(=O)Nc1ccc(Cl)cc1C(=O)O)Nc1ccc(Cl)cc1C(=O)O [2-({6-[(2-carboxy-4-chlorophenyl)amino]-6-oxohexanoyl}amino)-5-chlorobenzoic acid]	1.8		
O=C(CCCCC(=O)Nc1ccccc1C(=O)O)Nc1ccccc1C(=O)O [2-({6-[(2-carboxyphenyl)amino]-6-oxohexanoyl}amino)benzoic acid]		9	
COc1ccc(NC(=O)CCCCC(=O)Nc2ccc(OC)cc2C(=O)O)c(C(=O)O)c1 [2-[4-(2-carboxy-4-methoxyphenylcarbamoyl)butylcarboxamido]-5-methoxybenzoic acid]	4.3		
Cc1ccc(NC(=O)CCCCC(=O)Nc2ccc(C)cc2C(=O)O)c(C(=O)O)c1 [2-[4-(2-carboxy-4-methylphenylcarbamoyl)butylcarboxamido]-5-methylbenzoic acid]		9.2	
CSc1ccc(NC(=O)CCCCC(=O)Nc2ccc(SC)cc2C(=O)O)c(C(=O)O)c1 [2-[4-(2-carboxy-4-methylsulfanylphenylcarbamoyl)butylcarboxamido]-5-methylsulfanylbenzoic acid]	6.9		
O=C(CCCCC(=O)Nc1ccc(Br)cc1C(=O)O)Nc1ccc(Br)cc1 [5-Bromo-2-[5-(4-bromo-phenylcarbamoyl)-pentanoylamino]-benzoic acid]		32	
O=C(CCCCC(=O)Nc1ccc(Br)cc1C(=O)O)Nc1ccc(Br)cc1C(=O)O [5-bromo-2-({6-[(4-bromo-2-carboxyphenyl)amino]-6-oxohexanoyl}amino)benzoic acid]	1.7		
O=C(CCCCCCC(=O)Nc1ccc(Br)cc1C(=O)O)Nc1ccc(Br)cc1C(=O)O [5-bromo-2-[6-(4-bromo-2-carboxyphenylcarbamoyl)hexylcarboxamido]benzoic acid]			IC50 [3]: 7.4 µM
O=C(Nc1ccc(Br)cc1C(=O)O)c1ccc(C(=O)Nc2ccc(Br)cc2C(=O)O)nc1 [5-bromo-2-{[(5-{[(4-bromo-2-carboxyphenyl)amino]carbonyl}pyridin-2-yl)carbonyl]amino}benzoic acid]		5.5	

Source: BindingDB's records for doi:10.1016/s0960-894x(98)00214-5 (Glaxowellcome Medicines Research Center, 1999)
